From PMC9030254, “Target Hopping from Protein Kinases to PXR: Identification of Small-Molecule Protein Kinase Inhibitors as Selective Modulators of Pregnane X Receptor from TüKIC Library” (Cells, 2022)

What was measured:
Assay in all cases: Kinase profiling
Assay type in all cases: biochemical
MAP3K11 = molecular target: T1, MAP3K11 (Homo sapiens, UniProt Q16584)
T1 construct: purchased ProQinase (Freiburg, Germany)
Description: (§1) The analysis was performed by ProQinase (Freiburg, Germany).

PRK2 = molecular target: T2, PRK2 (Homo sapiens, UniProt Q16513)
T2 construct: purchased ProQinase (Freiburg, Germany)
T2 sequence (Q16513 whole entry): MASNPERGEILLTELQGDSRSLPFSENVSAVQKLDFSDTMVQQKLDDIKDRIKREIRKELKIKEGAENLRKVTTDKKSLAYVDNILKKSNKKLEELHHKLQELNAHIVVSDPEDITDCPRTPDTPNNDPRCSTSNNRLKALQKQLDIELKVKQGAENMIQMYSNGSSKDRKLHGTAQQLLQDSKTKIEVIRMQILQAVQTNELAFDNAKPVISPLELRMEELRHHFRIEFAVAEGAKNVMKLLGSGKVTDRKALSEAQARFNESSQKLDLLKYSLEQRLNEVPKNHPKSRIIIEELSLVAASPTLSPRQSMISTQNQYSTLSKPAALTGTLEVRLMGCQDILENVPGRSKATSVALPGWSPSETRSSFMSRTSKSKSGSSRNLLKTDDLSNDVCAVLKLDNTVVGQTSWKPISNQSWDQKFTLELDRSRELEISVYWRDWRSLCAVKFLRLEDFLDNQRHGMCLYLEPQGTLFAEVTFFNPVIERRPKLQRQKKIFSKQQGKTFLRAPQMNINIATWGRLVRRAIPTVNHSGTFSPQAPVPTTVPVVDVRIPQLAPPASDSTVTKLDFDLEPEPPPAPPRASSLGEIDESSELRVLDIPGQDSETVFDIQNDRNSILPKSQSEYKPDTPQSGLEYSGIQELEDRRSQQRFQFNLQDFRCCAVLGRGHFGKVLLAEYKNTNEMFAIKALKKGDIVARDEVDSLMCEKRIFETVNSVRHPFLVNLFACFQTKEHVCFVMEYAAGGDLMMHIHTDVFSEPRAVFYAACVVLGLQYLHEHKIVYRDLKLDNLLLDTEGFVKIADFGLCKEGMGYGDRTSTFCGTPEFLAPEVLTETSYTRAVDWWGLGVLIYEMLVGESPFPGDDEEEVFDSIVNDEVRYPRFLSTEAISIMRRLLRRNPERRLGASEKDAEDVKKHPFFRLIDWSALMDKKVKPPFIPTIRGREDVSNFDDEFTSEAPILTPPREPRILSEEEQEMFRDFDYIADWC
Description: as §1

PRKD2 = molecular target: T3, PRKD2 (Homo sapiens, UniProt Q9BZL6)
T3 construct: purchased ProQinase (Freiburg, Germany)
T3 sequence (Q9BZL6 1-878): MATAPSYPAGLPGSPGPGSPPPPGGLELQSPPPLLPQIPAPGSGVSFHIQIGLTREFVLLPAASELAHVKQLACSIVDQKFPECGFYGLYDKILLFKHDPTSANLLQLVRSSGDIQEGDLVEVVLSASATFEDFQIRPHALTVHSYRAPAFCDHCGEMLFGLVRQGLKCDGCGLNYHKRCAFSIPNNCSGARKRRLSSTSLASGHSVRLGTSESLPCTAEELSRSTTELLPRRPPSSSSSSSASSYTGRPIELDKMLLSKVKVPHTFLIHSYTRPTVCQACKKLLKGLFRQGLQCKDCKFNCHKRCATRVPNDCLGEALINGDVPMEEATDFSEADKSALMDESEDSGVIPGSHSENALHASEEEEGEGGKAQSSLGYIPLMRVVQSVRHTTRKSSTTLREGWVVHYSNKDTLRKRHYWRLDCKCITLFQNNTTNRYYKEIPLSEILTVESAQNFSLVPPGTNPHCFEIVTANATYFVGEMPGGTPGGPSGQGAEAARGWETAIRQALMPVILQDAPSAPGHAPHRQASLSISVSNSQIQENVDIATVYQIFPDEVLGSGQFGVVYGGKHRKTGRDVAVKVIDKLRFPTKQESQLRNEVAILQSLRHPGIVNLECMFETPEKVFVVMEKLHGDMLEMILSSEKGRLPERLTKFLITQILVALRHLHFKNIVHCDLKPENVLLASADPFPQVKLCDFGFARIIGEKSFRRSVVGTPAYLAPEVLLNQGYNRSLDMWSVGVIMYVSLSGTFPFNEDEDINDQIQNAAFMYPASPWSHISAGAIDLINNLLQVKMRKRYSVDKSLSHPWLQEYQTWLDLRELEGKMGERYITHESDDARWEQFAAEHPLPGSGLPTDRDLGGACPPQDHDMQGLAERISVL
Description: as §1

RIPK5 = molecular target: T4, RIPK5 (Homo sapiens, UniProt Q6XUX3)
T4 construct: purchased ProQinase (Freiburg, Germany)
T4 sequence (Q6XUX3 1-929): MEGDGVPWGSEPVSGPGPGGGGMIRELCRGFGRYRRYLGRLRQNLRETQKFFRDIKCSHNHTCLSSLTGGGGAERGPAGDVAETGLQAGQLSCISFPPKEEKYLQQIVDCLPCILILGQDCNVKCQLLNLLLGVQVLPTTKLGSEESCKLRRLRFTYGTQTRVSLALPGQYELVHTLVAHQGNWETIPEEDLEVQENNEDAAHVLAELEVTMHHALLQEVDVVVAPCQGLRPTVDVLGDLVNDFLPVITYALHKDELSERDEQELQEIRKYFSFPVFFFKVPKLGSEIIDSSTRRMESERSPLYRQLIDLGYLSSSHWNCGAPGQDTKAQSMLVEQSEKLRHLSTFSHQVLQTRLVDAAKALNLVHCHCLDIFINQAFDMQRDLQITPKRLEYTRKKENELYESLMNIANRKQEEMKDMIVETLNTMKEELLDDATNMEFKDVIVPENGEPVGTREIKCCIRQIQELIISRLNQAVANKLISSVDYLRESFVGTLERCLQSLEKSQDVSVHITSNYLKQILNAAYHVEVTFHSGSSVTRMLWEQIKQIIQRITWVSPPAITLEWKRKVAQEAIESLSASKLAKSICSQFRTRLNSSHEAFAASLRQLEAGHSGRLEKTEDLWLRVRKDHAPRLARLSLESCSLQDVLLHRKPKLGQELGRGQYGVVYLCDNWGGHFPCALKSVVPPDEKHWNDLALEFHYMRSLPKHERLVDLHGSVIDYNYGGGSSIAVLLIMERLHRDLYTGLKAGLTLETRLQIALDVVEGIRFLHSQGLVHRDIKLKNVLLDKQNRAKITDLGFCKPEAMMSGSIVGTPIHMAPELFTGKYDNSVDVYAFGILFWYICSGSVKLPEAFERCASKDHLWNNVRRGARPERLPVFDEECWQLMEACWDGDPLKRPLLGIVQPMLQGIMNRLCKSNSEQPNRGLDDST
Description: as §1

RON = molecular target: T5, RON (Homo sapiens, UniProt Q04912)
T5 construct: purchased ProQinase (Freiburg, Germany)
T5 sequence (Q04912 25-1400): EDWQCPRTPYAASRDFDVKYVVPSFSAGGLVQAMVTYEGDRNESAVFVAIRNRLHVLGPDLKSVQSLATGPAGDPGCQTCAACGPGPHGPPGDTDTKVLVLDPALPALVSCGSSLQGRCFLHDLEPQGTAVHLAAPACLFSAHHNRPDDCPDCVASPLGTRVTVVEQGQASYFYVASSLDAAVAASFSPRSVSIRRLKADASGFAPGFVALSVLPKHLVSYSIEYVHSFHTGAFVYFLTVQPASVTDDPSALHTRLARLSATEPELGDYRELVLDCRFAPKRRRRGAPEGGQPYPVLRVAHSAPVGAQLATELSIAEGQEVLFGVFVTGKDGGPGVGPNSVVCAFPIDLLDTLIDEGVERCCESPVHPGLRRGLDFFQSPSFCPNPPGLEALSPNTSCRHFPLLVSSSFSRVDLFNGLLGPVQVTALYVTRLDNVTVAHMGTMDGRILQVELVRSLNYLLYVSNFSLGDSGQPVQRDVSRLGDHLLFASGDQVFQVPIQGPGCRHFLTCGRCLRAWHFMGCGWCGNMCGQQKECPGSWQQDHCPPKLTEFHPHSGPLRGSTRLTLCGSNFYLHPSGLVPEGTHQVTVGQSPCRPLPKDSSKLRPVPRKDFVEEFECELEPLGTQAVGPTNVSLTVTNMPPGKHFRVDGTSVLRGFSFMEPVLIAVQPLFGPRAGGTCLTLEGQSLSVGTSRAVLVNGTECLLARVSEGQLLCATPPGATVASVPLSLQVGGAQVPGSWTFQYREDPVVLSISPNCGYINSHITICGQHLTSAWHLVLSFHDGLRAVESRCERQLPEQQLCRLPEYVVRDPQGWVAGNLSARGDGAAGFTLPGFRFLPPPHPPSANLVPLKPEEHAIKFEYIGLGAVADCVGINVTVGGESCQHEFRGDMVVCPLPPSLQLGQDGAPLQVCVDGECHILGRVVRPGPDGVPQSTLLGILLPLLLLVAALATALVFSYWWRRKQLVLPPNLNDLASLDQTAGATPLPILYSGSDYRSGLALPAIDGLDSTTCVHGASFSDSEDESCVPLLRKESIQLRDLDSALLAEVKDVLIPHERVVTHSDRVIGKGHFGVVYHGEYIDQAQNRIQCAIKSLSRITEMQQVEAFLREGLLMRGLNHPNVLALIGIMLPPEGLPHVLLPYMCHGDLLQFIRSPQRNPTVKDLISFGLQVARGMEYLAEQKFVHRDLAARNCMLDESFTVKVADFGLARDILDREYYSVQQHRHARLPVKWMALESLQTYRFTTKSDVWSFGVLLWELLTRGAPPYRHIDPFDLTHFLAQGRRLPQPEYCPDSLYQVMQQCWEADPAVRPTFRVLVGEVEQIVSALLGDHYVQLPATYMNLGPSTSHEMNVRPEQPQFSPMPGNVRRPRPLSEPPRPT
Description: as §1

TXK = molecular target: T6, TXK (Homo sapiens, UniProt P42681)
T6 construct: purchased ProQinase (Freiburg, Germany)
T6 sequence (P42681 1-527): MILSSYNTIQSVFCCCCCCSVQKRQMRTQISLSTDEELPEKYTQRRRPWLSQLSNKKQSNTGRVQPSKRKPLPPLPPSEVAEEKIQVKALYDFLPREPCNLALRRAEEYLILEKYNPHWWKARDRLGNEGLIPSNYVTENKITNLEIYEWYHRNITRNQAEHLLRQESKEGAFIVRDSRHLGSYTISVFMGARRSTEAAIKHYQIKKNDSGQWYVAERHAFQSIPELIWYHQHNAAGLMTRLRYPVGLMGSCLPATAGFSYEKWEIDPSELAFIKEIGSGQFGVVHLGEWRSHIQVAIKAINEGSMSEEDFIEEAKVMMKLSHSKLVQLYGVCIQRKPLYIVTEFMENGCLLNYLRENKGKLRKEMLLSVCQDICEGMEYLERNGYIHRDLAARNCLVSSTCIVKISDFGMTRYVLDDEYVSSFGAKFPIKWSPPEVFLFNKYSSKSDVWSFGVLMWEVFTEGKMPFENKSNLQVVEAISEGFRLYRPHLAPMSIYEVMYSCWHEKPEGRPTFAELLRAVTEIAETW
Description: as §1

T1 sequence (Q16584 whole entry): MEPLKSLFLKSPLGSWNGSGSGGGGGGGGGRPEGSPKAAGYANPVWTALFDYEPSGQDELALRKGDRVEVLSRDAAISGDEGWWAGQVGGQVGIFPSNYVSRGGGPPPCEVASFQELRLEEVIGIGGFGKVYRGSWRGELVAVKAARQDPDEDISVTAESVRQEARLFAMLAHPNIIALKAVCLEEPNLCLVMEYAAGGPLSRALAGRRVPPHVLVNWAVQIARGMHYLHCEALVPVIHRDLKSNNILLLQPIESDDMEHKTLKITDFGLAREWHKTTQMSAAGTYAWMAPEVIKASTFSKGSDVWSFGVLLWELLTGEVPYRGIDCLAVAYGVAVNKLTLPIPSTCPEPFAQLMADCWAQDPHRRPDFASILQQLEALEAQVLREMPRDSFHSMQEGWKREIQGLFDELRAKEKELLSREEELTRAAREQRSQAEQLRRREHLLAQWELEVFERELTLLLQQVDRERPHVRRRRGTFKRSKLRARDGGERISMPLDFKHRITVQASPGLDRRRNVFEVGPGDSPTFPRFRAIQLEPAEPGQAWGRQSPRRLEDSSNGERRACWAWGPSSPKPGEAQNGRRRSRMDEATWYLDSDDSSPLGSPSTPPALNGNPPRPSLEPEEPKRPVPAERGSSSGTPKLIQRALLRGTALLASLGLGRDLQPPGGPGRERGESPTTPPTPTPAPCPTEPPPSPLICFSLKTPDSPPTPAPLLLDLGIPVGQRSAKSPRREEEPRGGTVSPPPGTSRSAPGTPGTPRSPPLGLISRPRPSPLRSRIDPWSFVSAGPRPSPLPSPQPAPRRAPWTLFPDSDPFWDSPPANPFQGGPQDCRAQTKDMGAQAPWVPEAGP

Compound	Residual activity (MAP3K11; 1.0E-05 M)	Residual activity (MAP3K11; 1.0E-06 M)	Residual activity (PRK2; 1.0E-05 M)	Residual activity (PRK2; 1.0E-06 M)	Residual activity (PRKD2; 1.0E-05 M)	Residual activity (PRKD2; 1.0E-06 M)	Residual activity (RIPK5; 1.0E-05 M)	Residual activity (RIPK5; 1.0E-06 M)	Residual activity (RON; 1.0E-05 M)	Residual activity (RON; 1.0E-06 M)	Residual activity (TXK; 1.0E-05 M)	Residual activity (TXK; 1.0E-06 M)
O=C(Nc1ccc(F)c(Nc2ccc3c(c2)CCCCC3=O)c1)c1cccc(F)c1 [Compound 109]	110 % of control	108 % of control	96 % of control	90 % of control	81 % of control	82 % of control	100 % of control	101 % of control	83 % of control	89 % of control	97 % of control	97 % of control
O=C(Cc1ccccc1)Nc1ccc(F)c(Nc2ccc3c(c2)CCCCC3=O)c1 [Compound 100]	118 % of control	109 % of control	97 % of control	94 % of control	92 % of control	87 % of control	99 % of control	100 % of control	77 % of control	104 % of control	90 % of control	100 % of control
